Results from US20030113810A1, “Novel assay” (priority 2000, published 2003).
pEC50: −log10 of the molar value.

Experiments:
[1] = molecular target: T1, human GPR41 (Homo sapiens, UniProt O14843); conditions: membranes of HEK293T cells, human GPR41 + Go1α; FIG. 2-4
T1 sequence (O14843 1-346): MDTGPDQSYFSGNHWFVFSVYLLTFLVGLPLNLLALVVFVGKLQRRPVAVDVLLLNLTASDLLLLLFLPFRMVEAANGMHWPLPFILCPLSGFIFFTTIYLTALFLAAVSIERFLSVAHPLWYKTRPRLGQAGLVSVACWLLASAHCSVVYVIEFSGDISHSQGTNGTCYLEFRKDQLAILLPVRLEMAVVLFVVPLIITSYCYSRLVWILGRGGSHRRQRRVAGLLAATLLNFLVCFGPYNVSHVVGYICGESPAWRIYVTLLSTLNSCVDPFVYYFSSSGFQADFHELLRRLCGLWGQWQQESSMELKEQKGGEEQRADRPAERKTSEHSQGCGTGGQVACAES
Description: HEK293T cells (HEK293 cells stably expressing the SV40 large T-antigen) were maintained in DMEM containing 10% (v/v) foetal calf serum and 2 mM glutamine. Cells were seeded in 60 mm culture dishes and grown to 60-80% confluency (18-24 h) prior to transfection with pCDNA3 containing the relevant DNA species using Lipofectamine reagent. For transfection, 3 μg of DNA was mixed with 10 μl of Lipofectamine in 0.2 ml of Opti-MEM (Life Technologies Inc.) and was incubated at room temperature for 30 min prior to the addition of 1.6 ml of Opti-MEM. Cells were exposed to the Lipofectamine/DNA mixture for 5 h and 2 ml of 20% (v/v) newborn calf serum in DMEM was then added. Cells were harvested 48-72 h after transfection.
Plasma membrane-containing P2 particulate fractions were prepared from cell pastes frozen at −80° C. after harvest. All procedures were carried out at 4° C. Cell pellets were resuspended in 1 ml of 10 mM Tris-HCl and 0.1 mM EDTA, pH 7.5 (buffer A) and by homogenisation for 20 s with a polytron homogeniser followed by passage (5 times) through a 25-guage needle. Cell lysates were centrifuged at 1,000 g for 10 min in a microcentrifuge to pellet the nuclei and unbroken cells and P2 particulate fractions were recovered by microcentrifugation at 16,000 g for 30 min. P2 particulate fractions were resuspended in buffer A and stored at −80° C. until required. Protein concentrations were determined using the bicinchoninic acid (BCA) procedure (4) using BSA as a standard.
Assays were performed in 96-well format using a method modified from Wieland and Jakobs, 1994. Membranes (10 μg per point) were diluted to 0.083 mg/ml in assay buffer (20 mM HEPES, 100 mM NaCl, 10 mM MgCl2, pH7.4) supplemented with saponin (10 mg/l) and pre-incubated with 40 μM GDP. […] Non-specific binding was determined by the inclusion of 0.6 mM GTP. […] Plates were centrifuged at 1500 g for 5 min and bound [^35S]GTPγS was determined by scintillation counting on a Wallac 1450 microbeta Trilux scintillation counter.

[2] = molecular target: T2, rGPR41 (Rattus norvegicus, UniProt B2GV46); assay: Yeast FUS1-lacZ/FUS1-HIS3 reporter assay, rGPR41 in S. cerevisiae MMY22 (Gpa1/Gαo), FDG substrate; assay type: cell-based; set-up: expressed in transfected cells; host or cells: S. cerevisiae MMY22 (A1, A5; Gpa1/Gαo integrated) or MMY11 + pRS314-Gpa1/Gαo (A4), transformed with p426GPD-rGPR41; conditions: for pEC50: read-out: Agonism @ rGPR41 Approx. EC50; for relative agonist activity at rGPR41 (in words): yeast MMY22, carboxylic acid series C1-C12, FIG. 8
T2 sequence (B2GV46 1-319): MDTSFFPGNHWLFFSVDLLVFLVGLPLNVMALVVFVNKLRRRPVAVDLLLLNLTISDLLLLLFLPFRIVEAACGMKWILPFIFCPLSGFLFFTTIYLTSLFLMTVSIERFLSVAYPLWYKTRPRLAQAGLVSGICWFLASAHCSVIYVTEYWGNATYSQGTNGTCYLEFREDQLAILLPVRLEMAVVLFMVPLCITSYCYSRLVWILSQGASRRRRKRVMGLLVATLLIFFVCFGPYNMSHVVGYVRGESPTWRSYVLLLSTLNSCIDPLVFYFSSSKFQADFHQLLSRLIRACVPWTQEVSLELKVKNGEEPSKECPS
Description: A study was carried out of the function of rGPR41 following expression in S. cerevisiae MMY22, which is a derivative of S. cerevisiae MMY11 containing a copy of the gene encoding the Gpa1/Gαo transplant chimera described above (in which the 5 C-terminal amino acids of Gpa1 are replaced with the 5 C-terminal amino acids of Gαo) integrated into the genome. To do this, a cassette comprising the GPA1 promoter, nucleotide sequence encoding Gpa1/Gαo, and the terminator was sub-cloned from pRS314-Gpa1/Gαo into the yeast integrating plasmid pRS304 (Sikorski and Hieter, 1989). The resulting plasmid pRS304-Gpa1/Gαo was transformed into MMY11 and integrated into the trp1 locus creating MMY22.
The rGPR41 expression construct described above, p462GPD-rGPR41 was introduced into MMY22 by transformation as described above. Four separate transformants were tested for reporter gene activation in response to propionate. Assays for FUS1-lacZ and FUS1-HIS3 induction were performed as described, except the β-galactosidase (lacZ) substrate fluorescein di-β-D-galactopyranoside (FDG) was used in place of CPRG, and 3-aminotriazole concentration was 5 mM. Also, black-walled 96-well microtitre plates were used, and fluorescence resulting from degradation of FDG to fluorescein due to β-galactosidase was determined using a Spectrofluor microtitre plate reader (Tecan)(excitation wavelength: 485 nm; emmision wavelength: 535 nm).
A series of carboxylic acids and other compounds related to propionate were tested for the ability to activate rGPR41. Experiments were performed as described above, using yeast cells of strain MMY22 transformed with rGPR41 expression plasmid p462GPD-rGPR41, except that the agonist propionate was replaced with one of a series of other compounds, which are listed in table 2 below.
(§1) In vivo assays of reporter gene induction were carried out by suspending MMY11 cells transformed as described above to a density of 0.02 OD600/ml in 200 μl SC-glucose (2%) medium lacking tryptophan, uracil and histidine. This medium was supplemented with 10 mM 3-aminotriazole and the β-galactosidase (lacZ) substrate chlorophenolred-β-D-galactopyranoside (CPRG; Boehringer Mannheim) to a concentration of 0.1 mg/ml. Additionally the medium was supplemented with various concentrations of the agonist ligand, propionate (sodium propionate, pH 7.0). To visualise the yellow to red colour change reaction occurring on degradation of CPRG due to β-galactosidase, the medium was buffered to pH 7 with 0.1 M sodium phosphate. The assay was conducted in flat-bottomed sterile 96-well microtitre plates. Plates were incubated for 24 hours at 30° C. without agitation, and absorbance at 570 nm was determined using a Spectrofluor microtitre plate reader (Tecan).

[3] = molecular target: T2, rGPR41; assay: Yeast reporter assay, rGPR41 in MMY22, CPRG substrate (3-hydroxybutyrate study); assay type: cell-based; set-up: expressed in transfected cells; host or cells: S. cerevisiae MMY22 (A1, A5; Gpa1/Gαo integrated) or MMY11 + pRS314-Gpa1/Gαo (A4), transformed with p426GPD-rGPR41; conditions: for agonism at rGPR41 (in words): FIG. 9
Description: A study was made of the agonism of rGPR41 by the naturally-occurring ketone body compound, 3-hydroxybutyrate. Experiments were performed as described above, using yeast cells of strain MMY22 transformed with rGPR41 expression plasmid p462GPD-rGPR41, except that the substrate CPRG was used. Also, the agonist propionate was replaced with 3-hydroxybutyrate (β-hydroxybutyrate), either as a racemic mix of both stereoisomers, or as purified enantiomers D-3-hydroxybutyrate, or L-3-hydroxybutyrate.
as §1

[4] = yeast MMY22 with p462GPD-rGPR41, FDG fluorescence, compounds as salt solutions buffered to pH 7.0

Compound | Agonism @ rGPR41 Approx. EC50 (M) [2, 4] | further results
CC(O)CC(=O)O (racemic) [DL-b-Hydroxybutyrate] | – | stimulation of [35S]GTPγS binding [1]: elevate [^35S]GTPγS binding; pEC50 [2, 4]: ~2.00; agonism at rGPR41 (in words) [3]: agonist at rGPR41 with a potency similar or slightly less than acetate; lowest concentrations causing detectable activation of rGPR41 (threshold) ([3]; FIG. 9, listed as 3-hydroxybutyrate): approximately 1 mM
C=CCCC(=O)O [4-pentenoate] | – | pEC50 [2, 4]: ~4.52
CC(=O)CC(=O)O [Acetoacetate] | weak active | –
CC(C)=O [Acetone] | – | Agonism @ rGPR41 Approx. EC50 (M) ([2]; pH 7): Inactive
C[C@H](N)C(=O)O [Alanine] | Inactive | –
O=C1O[C@H]([C@@H](O)CO)C(O)=C1O [Ascorbate] | Inactive | –
CCCCCC(=O)O [Caproic C6 acid] | – | pEC50 [2, 4]: ~4.52
CCCCCCCC(=O)O [Caprylic C8 acid] | weak active | –
O=C(O)CC(O)(CC(=O)O)C(=O)O [Citrate] | Inactive | relative agonist activity at rGPR41 (in words) [2]: either inactive or had very weak activities
C[C@@H](O)CC(=O)O [D-b-Hydroxybutyrate] | – | pEC50 [2, 4]: ~2.00; agonism at rGPR41 (in words) [3]: similarly active to the racemic mix DL-3-hydroxybutyrate
CCCCCCCCCC(=O)O [Decanoic C10 acid] | inactive/toxic | relative agonist activity at rGPR41 (in words) [2]: inactive
O=CO [Formate] | – | Agonism @ rGPR41 Approx. EC50 (M) ([2]; pH 7): Weak active
O=C(O)/C=C/C(=O)O [Fumarate] | Inactive | relative agonist activity at rGPR41 (in words) [2]: either inactive or had very weak activities
NCCCC(=O)O [GABA] | Inactive | –
N[C@@H](CCC(=O)O)C(=O)O [Glutamate] | Inactive | –
NCC(=O)O [Glycine] | Inactive | –
O=CC=O [Glyoxal] | – | Agonism @ rGPR41 Approx. EC50 (M) ([2]; pH 7): Toxic
O=CC(=O)O [Glyoxylic acid] | – | pEC50 [2, 4]: ~1.30
CCCCCCC(=O)O [Heptanoic C7 acid] | – | pEC50 [2, 4]: ~4.00
CC(C)C(=O)O [Isobutyrate] | – | pEC50 [2, 4]: ~4.52
C[C@H](O)CC(=O)O [L-b-Hydroxybutyrate] | – | pEC50 [2, 4]: ~2.00
CCCCCCCCCCCC(=O)O [Lauric C12 acid] | inactive/toxic | relative agonist activity at rGPR41 (in words) [2]: inactive
CCCCC/C=C\C/C=C\CCCCCCCC(=O)O [Linoleic acid] | Toxic/Inactive | –
CN[C@H](CC(=O)O)C(=O)O [NMDA] | Inactive | –
CCCCCCCCC(=O)O [Nonanoic C9 acid] | inactive/toxic | relative agonist activity at rGPR41 (in words) [2]: inactive
O=C(O)C(=O)O [Oxalate] | – | pEC50 [2, 4]: ~2.52

Compound | Agonism @ rGPR41 Approx. EC50 (M) [2, 4] | further results
O=C(O)CC(=O)C(=O)O [Oxaloacetate] | Inactive | –
CCCCCC/C=C\CCCCCCCC(=O)O [Palmitoleic acid] | Toxic/inactive | –
CCCCC(=O)O [Pentanoate (n-valerate)] | – | relative agonist activity at rGPR41 (in words) [2]: similarly or slightly more active than propionate; pEC50 [2, 4]: ~5.52
O=C(O)CCC(=O)O [Succinate] | Inactive | relative agonist activity at rGPR41 (in words) [2]: either inactive or had very weak activities
O=C(O)C(O)C(O)C(=O)O (stereo not drawn) [Tartrate] | Inactive | –
O=C(O)C(F)(F)F [Trifluoroacetate] | weak active | –
CCCCCCCCCCC(=O)O [Undecanoic C11 acid] | inactive/toxic | relative agonist activity at rGPR41 (in words) [2]: inactive
CC(N)=O [acetamide] | very weak active | –
CCC(O)C(=O)O (stereo not drawn) [alpha-hydroxybutyrate] | Inactive | –
O=C(O)c1ccccc1 [benzoate] | – | Agonism @ rGPR41 Approx. EC50 (M) ([2]; pH 7): Toxic
O=C(O)CO [glycolate] | weak active | –
CC(O)C(=O)O (stereo not drawn) [lactate] | Inactive | –
O=C(O)/C=C\C(=O)O [maleate] | Inactive | –
O=C(O)CC(=O)O [malonate] | Inactive | –
CS(=O)(=O)O [methylsulphonate] | Inactive | –
CCCC(=O)O [n-Butyrate] | – | pEC50 [2, 4]: ~4.30
O=C(O)c1cccnc1 [nicotinic acid] | – | Agonism @ rGPR41 Approx. EC50 (M) ([2]; pH 7): Inactive
CCCCCCCC/C=C\CCCCCCCC(=O)O [oleate] | Inactive | –
CCCCCCCCCCCCCCCC(=O)O [palmitate] | Inactive | –
CC(C)(C)C(=O)O [pivalic acid] | – | pEC50 [2, 4]: ~3.30
CC(=O)C(=O)O [pyruvate] | Inactive | –
CCCCCCCCCCCCCCCCCC(=O)O [stearate] | Inactive | –
C/C=C(\C)C(=O)O [tiglic acid] | Inactive | –
O=C(O)CCCO [γ-hydroxybutyrate] | – | pEC50 [2, 4]: ~2.00
methyl-2-imidazoline | Toxic/inactive | –
